# Data as given in PubChem BioAssay (NCI).
# “And” between values parts separate entries of the source, which are not always exact repeats. Equal entries are not always repeated.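 1) Cells in 96-well plates. 2) Compound, 48 h, 5 concentrations. 3) Linear interpolation between surrounding doses. 4) Unreached endpoint = highest concentration. GI50 marks 50% less growth. TGI is the concentration that stops growth completely.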
# Experiments:
# Test in all cases: DTP human tumour cell line panel, 48 h
# BT-549 breast = test system: BT-549 breast
# HCT-116 colon = test system: HCT-116 colon
# HL-60(TB) leukemia = test system: HL-60(TB) leukemia
# HOP-92 NSCLC = test system: HOP-92 NSCLC
# M14 melanoma = test system: M14 melanoma
# OVCAR-5 ovarian = test system: OVCAR-5 ovarian
# OVCAR-8 ovarian = test system: OVCAR-8 ovarian
# RPMI-8226 leukemia = test system: RPMI-8226 leukemia
# SNB-19 CNS = test system: SNB-19 CNS
# UO-31 renal = test system: UO-31 renal
Structure (SMILES),GI50 (BT-549 breast) [µM],TGI (BT-549 breast) [µM],GI50 (HCT-116 colon) [µM],TGI (HCT-116 colon) [µM],GI50 (HL-60(TB) leukemia) [µM],TGI (HL-60(TB) leukemia),GI50 (HOP-92 NSCLC) [µM],TGI (HOP-92 NSCLC) [µM],GI50 (M14 melanoma) [µM],TGI (M14 melanoma) [µM],GI50 (OVCAR-5 ovarian) [µM],TGI (OVCAR-5 ovarian) [µM],GI50 (OVCAR-8 ovarian) [µM],TGI (OVCAR-8 ovarian) [µM],GI50 (RPMI-8226 leukemia) [µM],TGI (RPMI-8226 leukemia) [µM],GI50 (SNB-19 CNS) [µM],TGI (SNB-19 CNS) [µM],GI50 (UO-31 renal) [µM],TGI (UO-31 renal) [µM]
COc1ccc(/C=C\c2cc(OC)c(OC)c(OC)c2)c(NS(=O)(=O)c2ccc(Cl)cc2)c1O,0.353,34.5,0.114,> 100,0.0331,0.265 µM,2.36,23.6,0.0913,56.3,2.86,33.8,0.294,80.6,0.207,20.5,0.807,> 100,0.0739,26.4
CCOC(=O)Nc1nc2cc(OCC)ccc2s1,> 100,> 100,6.82,> 100,4.85,> 100 µM,> 100,> 100,8.94,> 100,> 100,> 100,> 76.1,> 100,> 65.8,> 100,> 100,> 100,> 100,> 100
C/C(=N\NC(=S)N1CCN(c2ccccn2)CC1)c1nccs1,–,18,0.0156,20.2,0.00712,0.0419 µM and 0.0526 µM,0.017,–,–,1.49,0.0544,27.4,–,14.4,0.0145,23.2,–,32.8,–,14
COC(=O)C(=O)C(C(=O)C(N)=O)c1nc2ccc(C(=O)c3ccccc3)cc2[nH]c1=O (stereo unspecified),–,> 100,–,> 100,–,> 100 µM,–,> 100,–,> 100,–,> 100,–,> 100,–,> 100,–,–,–,–
CC(=O)c1cccc(-c2cccc(-c3ccn(CCN4CCOCC4)n3)c2)c1,> 20,> 20,> 20,> 20,> 20,> 20 µM,16.2,> 20,> 20,> 20,> 20,> 20,> 20,> 20,> 20,> 20,–,–,> 20,> 20
CCCCCCNC(=O)n1cc(F)c(=O)[nH]c1=O,2.56,24.9,1.99,15.3,6.84,30.6 µM,14.8,50,7.77,23.9,12.8,37.2,3.29,24.1,2.38,32.2,7.48,56.3,–,–
CNCCNc1nc2ccccc2c2c(=O)c3cc(OC)ccc3sc12,1.59,3.11,1.34,2.62,1.9,3.6 µM,1.29,3.32,1.73,3.23,1.8,3.27,1.91,4.39,1.62,3.41,–,–,1.29,2.6
